US20250035576A1, “AUTOMATED OXYGEN-DEPENDENT BLOOD FUNCTION MEASUREMENT SYSTEMS AND METHODS” (FLORIDA ATLANTIC UNIVERSITY BOARD OF TRUSTEES, priority 2023, published 2025)
“Also recorded” adds a separate entry of the source.

What was measured:
[1] = test system: sickle cells; test: Microfluidic assay of the efficacy of an anti-sickling oxygen modulator on patient samples; assay type: cell-based, human; settings: blood samples of 5 patients; FIG. 6D
From the text: This, however, could not be detected using conventional hematological assay, such as Hb electrophoresis or HPLC.

[2] = test system: sickle cells; test: Microfluidic cell sickling assay (kinetics of cell sickling) under controlled low O2 tension, cell-imaging analysis; assay type: cell-based, human; settings: sickle cells from patients on HU treatment vs off HU; PaO2 15 mm Hg; FIG. 6A
Method: (§1) A study was conducted to develop and evaluate the exemplary system and method comprising microfluidic assays of sickle cell functional properties to provide quantitative assessments of disease heterogeneity and severity. A microfluidic strategy for on-chip O2 control was developed, which is critical to measure O2-dependent sickle cell functional properties. This method utilizes gas permeability of thin PDMS film (˜150 μm thick) that enables rapid diffusion of O2 at a specific PaO2 value from the gas channel to the cell channel. […]
(§2) Cell sickling events induced by exposing sickle cells to a transient hypoxia (e.g., reduce the atmospheric (atm) PaO2 to a low O2 tension level) are measured under stationary condition (FIG. 5A). […] Sickle cell rheology (deformability and occlusion) are measured under flow condition for 60 s, where sickle cells with extended delay time in HbS polymerization can escape the micro-slits but those containing rigid HbS fibers (undissolved HbS or hypoxia induced HbS fibers) lose their deformability and become trapped at the micro-slits (FIG. 5B). These two aspects of sickle cell behavior measured under controlled O2 tension (in exposure to testing PaO2 15 mm Hg briefly for 60 s) provided quantitative cell functional assessment, which show strong linear correlation to patient's HbS level, as obtained from standard HPLC (FIG. 5C and FIG. 5D). […]

[3] = test system: sickle cells; test: Microfluidic sickle cell rheology assay (occlusion/obstruction at micro-slits) under controlled low O2 tension; assay type: cell-based, human; settings: sickle cells from patients with HU treatment vs without; PaO2 15 mm Hg, flow 60 s; FIG. 6B
Method: as §1, §2

[4] = test system: fetal hemoglobin (HbF); settings: hematological response to HU, literature [38]; cited from earlier work

Row | Compound | dose dependence of anti-sickling efficacy, patient-specific response [1] | delay time of cell sickling events [2] | occlusion fraction (obstruction in micro-slits) [3] | HbF level in some patients [4]
1 | O=Cc1ccc(CO)o1 [5HMF, 5-(hydroxymethyl) furfural] | patient-specific response; also recorded: dosedependence is similar among 5 patients, but significant variations exist | – | – | –
2 | NC(=O)NO [HU, hydroxyurea] | – | significantly extended | much less obstruction | up to 40%
